Experimental data: patent publication US7101878B1 (Agouron Pharmaceuticals, Inc., priority 1998, dated 2006)

These compounds were tested against T1, mouse GnRH receptor (Mus musculus, UniProt Q01776) (assay: Radioligand binding, 125I-GnRH-A, 293 cells expressing mouse GnRH receptors). Settings: 10 uM; read-out: % Inhib. @ 10 uM mGnRH.
T1 construct: expressed in transfected cells; host or cells: 293 cells
T1 sequence (Q01776 1-327): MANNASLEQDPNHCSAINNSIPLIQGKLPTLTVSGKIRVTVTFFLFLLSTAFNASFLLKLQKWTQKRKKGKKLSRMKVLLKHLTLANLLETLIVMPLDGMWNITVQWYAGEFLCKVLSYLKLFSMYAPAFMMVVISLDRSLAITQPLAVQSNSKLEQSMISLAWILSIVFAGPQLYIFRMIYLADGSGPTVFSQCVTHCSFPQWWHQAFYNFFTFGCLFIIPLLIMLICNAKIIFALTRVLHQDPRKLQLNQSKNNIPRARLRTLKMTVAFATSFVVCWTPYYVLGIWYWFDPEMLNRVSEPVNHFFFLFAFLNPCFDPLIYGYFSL
Protocol: All compounds were diluted in 1% DMSO (final assay concentration) in binding assay buffer. […] Reactions were terminated by rapid filtration onto 96-well Packard GF/C filters soaked in 0.1% polyethyleneimine. Filters were washed three times with PBS buffer, dried and counted on a Packard Topcount by liquid scintillation counting.
Assay conditions were identical for assessing compound activities at other species. […] IC50 values for control peptides and test compounds were calculated utilizing GraphPad Prism™ software.
The reaction mixture was vortexed and incubated for 1 min at room temperature. After one min, the mixture was vortexed and allowed to incubate for an additional minute. 2 ml of 0.5 M acetic acid/1% BSA was added to the reaction tube and the mixture was added to a C18 Sep-Pak cartridge. The cartridge was washed with subsequent washes of 5 ml H2O and 5 ml 0.5M acetic acid and then eluted with 5×1 ml of 60% CH3CN/40% 0.5M acetic acid. The eluate was diluted with 3× volume of HPLC buffer A (0.1% TFA in H2O) and loaded onto a C18 column. […] The radioactive fractions (750 ed/fraction) are collected into clean polypropylene tubes containing 100 μl of 10% BSA. Fractions were assessed for biological activity by radioligand binding.

SMILES | inhibition at 10 µM [%]
Cc1cc2c(cc1Cc1ccc(C(=O)N3CCN(CCN(C)C)CC3)o1)C(C)(C)CCC2(C)C | 98
Cc1cc2c(cc1Cc1ccc(C(=O)N3CCN(CC(=O)N(C)c4ccccc4)CC3)o1)C(C)(C)CCC2(C)C | 103
C=CCN1CCN(C(=O)c2ccc(Cc3cc4c(cc3C)C(C)(C)CCC4(C)C)o2)CC1 | 95
Cc1cc2c(cc1Cc1ccc(C(=O)NC(C(C)C)C(C)C)o1)C(C)(C)CCC2(C)C | 58
CCCCNC(=O)c1ccc(Cc2cc3c(cc2C)C(C)(C)CCC3(C)C)o1 | 90
Cc1cc2c(cc1Cc1ccc(C(=O)N(Cc3ccccc3Cl)CC(c3ccccc3)c3ccccc3)o1)C(C)(C)CCC2(C)C | 8
Cc1ccc(CN(CCCN2CCOCC2)C(=O)c2ccc(Cc3cc4c(cc3C)C(C)(C)CCC4(C)C)o2)cc1 | 103
CSc1ccc(CN(CCc2ccccn2)C(=O)c2ccc(Cc3cc4c(cc3C)C(C)(C)CCC4(C)C)o2)cc1 | 75
CCC(COC)NC(=O)c1ccc(Cc2cc3c(cc2C)C(C)(C)CCC3(C)C)o1 (stereo not shown) | 98
Cc1cc2c(cc1Cc1ccc(C(=O)N(Cc3ccc(O)cc3)C3CCN(Cc4ccccc4)C3)o1)C(C)(C)CCC2(C)C (stereo not shown) | 82
Cc1cc2c(cc1Cc1ccc(C(=O)N(CCCN3CCN(C)CC3)Cc3ccc(Cl)c(Cl)c3)o1)C(C)(C)CCC2(C)C | 104
Cc1cc2c(cc1Cc1ccc(C(=O)N(CCCN3CCN(C)CC3)Cc3ccc(OCCCN(C)C)cc3)o1)C(C)(C)CCC2(C)C | 100
Cc1cc2c(cc1Cc1ccc(C(=O)N(CCCO)Cc3ccc(Cl)cc3Cl)o1)C(C)(C)CCC2(C)C | 94
CCc1ccc(CN(CCCO)C(=O)c2ccc(Cc3cc4c(cc3C)C(C)(C)CCC4(C)C)o2)cc1 | 88
Cc1cc2c(cc1Cc1ccc(C(=O)N(CCCO)CCC(C)CCCC(C)(C)O)o1)C(C)(C)CCC2(C)C (stereo not shown) | 99
Cc1cc2c(cc1Cc1ccc(C(=O)N3Cc4ccccc4CC3CO)o1)C(C)(C)CCC2(C)C (stereo not shown) | 61
CCN(CC)CCCC(C)N(Cc1ccc(F)cc1)C(=O)c1ccc(Cc2cc3c(cc2C)C(C)(C)CCC3(C)C)o1 (stereo not shown) | 102
Cc1cc2c(cc1Cc1ccc(C(=O)N(CCCc3ccccc3)Cc3ccc(Oc4ccccc4)cc3)o1)C(C)(C)CCC2(C)C | 17
Cc1cc2c(cc1Cc1ccc(C(=O)NCC3CC3)o1)C(C)(C)CCC2(C)C | 86
Cc1ccc(C(C)NC(=O)c2ccc(Cc3cc4c(cc3C)C(C)(C)CCC4(C)C)o2)cc1 (stereo not shown) | 97
CCCCN(CCC#N)C(=O)c1ccc(Cc2cc3c(cc2C)C(C)(C)CCC3(C)C)o1 | 87
Cc1cc2c(cc1Cc1ccc(C(=O)N(C)C3CCCC3)o1)C(C)(C)CCC2(C)C | 100

SMILES | inhibition at 10 µM [%]
Cc1cc2c(cc1Cc1ccc(C(=O)NC[C@@H](C)c3ccccc3)o1)C(C)(C)CCC2(C)C | 70
Cc1cc2c(cc1Cc1ccc(C(=O)N3CCN(C4Nc5ccccc5Oc5ccc(Cl)cc54)CC3)o1)C(C)(C)CCC2(C)C (stereo not shown) | 5
Cc1cc2c(cc1Cc1ccc(C(=O)N(CCC#N)CC3CCCO3)o1)C(C)(C)CCC2(C)C (stereo not shown) | 95
CCCN(CCC#N)C(=O)c1ccc(Cc2cc3c(cc2C)C(C)(C)CCC3(C)C)o1 | 94
Cc1cc2c(cc1Cc1ccc(C(=O)N(C)CCC(O)c3ccccc3)o1)C(C)(C)CCC2(C)C (stereo not shown) | 99
CCN(CCCCO)C(=O)c1ccc(Cc2cc3c(cc2C)C(C)(C)CCC3(C)C)o1 | 94
Cc1cc2c(cc1Cc1ccc(C(=O)N3CCCC(C)C3)o1)C(C)(C)CCC2(C)C (stereo not shown) | 97
CCN(Cc1ccccc1)C(=O)c1ccc(Cc2cc3c(cc2C)C(C)(C)CCC3(C)C)o1 | 86
Cc1cc2c(cc1Cc1ccc(C(=O)N(Cc3cccc(Cl)c3)Cc3cccc(Cl)c3)o1)C(C)(C)CCC2(C)C | 17
CCN(CC)CCCCNC(=O)c1ccc(Cc2cc3c(cc2C)C(C)(C)CCC3(C)C)o1 | 101
CCN(CC)CCCN(CCCN(CC)CC)C(=O)c1ccc(Cc2cc3c(cc2C)C(C)(C)CCC3(C)C)o1 | 69
CCN(CC)CCCN(C)C(=O)c1ccc(Cc2cc3c(cc2C)C(C)(C)CCC3(C)C)o1 | 92
Cc1cc2c(cc1Cc1ccc(C(=O)N3CCN(C(C)c4ccccc4)CC3)o1)C(C)(C)CCC2(C)C (stereo not shown) | 91
Cc1cc2c(cc1Cc1ccc(C(=O)N3CCN(C(C)C)CC3)o1)C(C)(C)CCC2(C)C | 100
Cc1cc2c(cc1Cc1ccc(C(=O)N3CCN(c4ccc(OCc5ccccc5)cc4)CC3)o1)C(C)(C)CCC2(C)C | 44
Cc1cc2c(cc1Cc1ccc(C(=O)N(CC#N)CC#N)o1)C(C)(C)CCC2(C)C | 64
Cc1cc2c(cc1Cc1ccc(C(=O)N(C)[C@@H](C)Cc3ccccc3)o1)C(C)(C)CCC2(C)C | 59
Cc1cc2c(cc1Cc1ccc(C(=O)N[C@@H](C)C(O)c3ccccc3)o1)C(C)(C)CCC2(C)C (stereo partly shown) | 63
Cc1cc2c(cc1Cc1ccc(C(=O)NC(C)(C)C(=O)OC(C)(C)C)o1)C(C)(C)CCC2(C)C | 75
Cc1cc2c(cc1Cc1ccc(C(=O)NC3CCCCC3C3CCCCC3)o1)C(C)(C)CCC2(C)C (stereo not shown) | 13
COCCN1CCN(C(=O)c2ccc(Cc3cc4c(cc3C)C(C)(C)CCC4(C)C)o2)CC1 | 81
Cc1cc2c(cc1Cc1ccc(C(=O)N3CCc4[nH]c5c(F)cccc5c4C3)o1)C(C)(C)CCC2(C)C | 46

SMILES | inhibition at 10 µM [%]
COc1ccccc1C1CCN(C(=O)c2ccc(Cc3cc4c(cc3C)C(C)(C)CCC4(C)C)o2)CC1 | 63
COc1ccc(CCN(CC(C)c2ccccc2)C(=O)c2ccc(Cc3cc4c(cc3C)C(C)(C)CCC4(C)C)o2)cc1OC (stereo not shown) | 72
Cc1cc2c(cc1Cc1ccc(C(=O)N3CCC(NC(=O)OC(C)(C)C)CC3)o1)C(C)(C)CCC2(C)C | 67
Cc1cc2c(cc1Cc1ccc(C(=O)NCCN3CCN(c4nccc(NCC5CCCO5)n4)CC3)o1)C(C)(C)CCC2(C)C (stereo not shown) | 96
CCOC(CN(Cc1ccncc1)C(=O)c1ccc(Cc2cc3c(cc2C)C(C)(C)CCC3(C)C)o1)OCC | 31
CCOC(=O)CC1C(=O)NCCN1C(=O)c1ccc(Cc2cc3c(cc2C)C(C)(C)CCC3(C)C)o1 (stereo not shown) | 98
CCN(CC)CCN1CCN(C(=O)c2ccc(Cc3cc4c(cc3C)C(C)(C)CCC4(C)C)o2)CC1 | 98
Cc1cc2c(cc1Cc1ccc(C(=O)N(C)CC(O)CO)o1)C(C)(C)CCC2(C)C (stereo not shown) | 69
CCOC(CNC(=O)c1ccc(Cc2cc3c(cc2C)C(C)(C)CCC3(C)C)o1)OCC | 100
CCC(C)CN(CCO)C(=O)c1ccc(Cc2cc3c(cc2C)C(C)(C)CCC3(C)C)o1 (stereo not shown) | 101
C=CCN(C(=O)c1ccc(Cc2cc3c(cc2C)C(C)(C)CCC3(C)C)o1)C1CCCC1 | 95
CCCCN(CC)CCNC(=O)c1ccc(Cc2cc3c(cc2C)C(C)(C)CCC3(C)C)o1 | 101
CCCN(C(=O)c1ccc(Cc2cc3c(cc2C)C(C)(C)CCC3(C)C)o1)C(C)CC (stereo not shown) | 94
Cc1cc2c(cc1Cc1ccc(C(=O)NC(CO)(CO)CO)o1)C(C)(C)CCC2(C)C | 13
Cc1cc2c(cc1Cc1ccc(C(=O)N3CCC3)o1)C(C)(C)CCC2(C)C | 63
Cc1cc2c(cc1Cc1ccc(C(=O)N(Cc3ccco3)C3CC(=O)N(Cc4ccccc4)C3=O)o1)C(C)(C)CCC2(C)C (stereo not shown) | 20
Cc1cc2c(cc1Cc1ccc(C(=O)N3CCCC3C(O)(c3ccccc3)c3ccccc3)o1)C(C)(C)CCC2(C)C (stereo not shown) | 31
Cc1cc2c(cc1Cc1ccc(C(=O)N3CCN(C(=O)C(c4ccccc4)c4ccccc4)CC3)o1)C(C)(C)CCC2(C)C | 36
Cc1cc2c(cc1Cc1ccc(C(=O)N3CCN(C(c4ccccc4)c4ccccc4)CC3)o1)C(C)(C)CCC2(C)C | 33
CC1(C)CCC(C)(C)c2cc(Cc3ccc(C(=O)NC4c5ccccc5-c5ccccc54)o3)ccc21 | 53

Same assay, conditions: 1 h, substrate remaining; 10 uM compound; closer to zero = closer to 100% inhibition; read-out: S%R 10 uM mGnRHR

SMILES | remaining activity at 10 µM [%]
Cc1cc2c(cc1Cc1ccc(C(=O)NCCC3CCCN3C)o1)C(C)(C)CCC2(C)C (stereo not shown) [Compound 456] | -12
Cc1cc2c(cc1Cc1ccc(C(=O)NCCc3cccnc3)o1)C(C)(C)CCC2(C)C [Compound 457] | -3
Cc1cc2c(cc1Cc1ccc(C(=O)NCCNCCNc3ccccc3)o1)C(C)(C)CCC2(C)C [Compound 458] | 29

Same assay, conditions: read-out: % Inhib. @ 10 uM mGnRH

SMILES | inhibition at 10 µM [%]
Cc1cc2c(cc1Cc1ccc(C(=O)N3CCC(O)(O)CC3)o1)C(C)(C)CCC2(C)C | 22
Cc1cc2c(cc1Cc1ccc(C(=O)N3CCC4(CC3)OCCCO4)o1)C(C)(C)CCC2(C)C | 99
Cc1cc2c(cc1Cc1ccc(C(=O)N[C@H]3CN4CCC3CC4)o1)C(C)(C)CCC2(C)C | 12
